Laboratory results from PubChem BioAssay AID330 (DTP/NCI, 2004).
Values joined by “and” are separate entries in the source; they are usually repeats but may differ in a detail not shown here. Identical values can stand only once. Toxic doses and inconclusive results are not listed.

Test system: P388 leukemia ip, CD2F1 mice, survival T/C
Assay: NCI In Vivo Anticancer Drug Screen. Data for tumor model P388 Leukemia (intraperitoneal) in CD2F1 (CDF1) mice
Conditions: endpoint: median survival time, higher = longer survival
Summary of the method: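 Mice carrying the transplanted tumor received test compound or vehicle. Survival was recorded in each group, and the value is the treated-group measurement divided by that of the vehicle-treated control group.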

[1] = dose: 60.0 mg/kg/injection, schedule: Q01DX005 (ip), vehicle: Klucel (hydroxypropylcellulose) (HPC)
[2] = dose: 120.0 mg/kg/injection, schedule: Q01DX005 (ip), vehicle: Klucel (hydroxypropylcellulose) (HPC)
[3] = dose: 50.0 mg/kg/injection, schedule: Q01DX005 (ip), vehicle: Klucel (hydroxypropylcellulose) (HPC)
[4] = dose: 100.0 mg/kg/injection, schedule: Q01DX005 (ip), vehicle: Klucel (hydroxypropylcellulose) (HPC)
[5] = dose: 200.0 mg/kg/injection, schedule: Q01DX005 (ip), vehicle: Klucel (hydroxypropylcellulose) (HPC)
[6] = dose: 100.0 mg/kg/injection, schedule: Q01DX009 (ip), vehicle: saline with Tween-80
[7] = dose: 200.0 mg/kg/injection, schedule: Q01DX009 (ip), vehicle: saline with Tween-80
[8] = dose: 60.0 mg/kg/injection, schedule: Q01DX005 (ip), vehicle: saline with Tween-80
[9] = dose: 120.0 mg/kg/injection, schedule: Q01DX005 (ip), vehicle: saline with Tween-80
[10] = dose: 240.0 mg/kg/injection, schedule: Q01DX005 (ip), vehicle: saline with Tween-80
[11] = dose: 50.0 mg/kg/injection, schedule: Q01DX009 (ip), vehicle: saline with Tween-80
[12] = dose: 50.0 mg/kg/injection, schedule: Q01DX005 (ip), vehicle: saline with Tween-80
[13] = dose: 100.0 mg/kg/injection, schedule: Q01DX005 (ip), vehicle: saline with Tween-80
[14] = dose: 200.0 mg/kg/injection, schedule: Q01DX005 (ip), vehicle: saline with Tween-80
[15] = dose: 50.0 mg/kg/injection, schedule: Q01DX009 (ip), vehicle: Klucel (hydroxypropylcellulose) (HPC)
[16] = dose: 100.0 mg/kg/injection, schedule: Q01DX009 (ip), vehicle: Klucel (hydroxypropylcellulose) (HPC)
[17] = dose: 200.0 mg/kg/injection, schedule: Q01DX009 (ip), vehicle: Klucel (hydroxypropylcellulose) (HPC)

SMILES: CC(/C=C/c1ccco1)=N\NC(=S)Nc1ccc(Cl)cc1
- T/C (dose: 100.0 mg/kg/injection, schedule: Q01DX001 (ip), vehicle: Klucel (hydroxypropylcellulose) (HPC)): 91 % of control
- T/C (dose: 200.0 mg/kg/injection, schedule: Q01DX001 (ip), vehicle: Klucel (hydroxypropylcellulose) (HPC)): 100 % of control
- T/C (dose: 400.0 mg/kg/injection, schedule: Q01DX001 (ip), vehicle: Klucel (hydroxypropylcellulose) (HPC)): 100 % of control

SMILES: COCN(C)N=Nc1ccc(C(=O)OC)cc1
- T/C [1]: 107 % of control
- T/C [2]: 101 % of control
- T/C (dose: 240.0 mg/kg/injection, schedule: Q01DX005 (ip), vehicle: Klucel (hydroxypropylcellulose) (HPC)): 87 % of control

SMILES: NC1(C(=O)O)CCSCC1
- T/C [3]: 101 % of control
- T/C [4]: 102 % of control
- T/C [5]: 90 % of control

SMILES: COc1ccc(CCN)cc1
- T/C (dose: 50.0 mg/kg/injection, schedule: Q01DX009 (ip), vehicle: saline): 101 % of control and 106 % of control

SMILES: Cc1ncc(CO)c(C=Nc2ccccc2N=Cc2c(CO)cnc(C)c2O)c1O.[Zn]
- T/C [3]: 104 % of control
- T/C [4]: 105 % of control
- T/C [5]: 101 % of control

SMILES: CCn1c(C)nc2c(N)cc(C(F)(F)F)cc21 (tested in a mixture with another compound)
- T/C (dose: 30.0 mg/kg/injection, schedule: Q01DX005 (ip), vehicle: Klucel (hydroxypropylcellulose) (HPC)): 95 % of control
- T/C [1]: 100 % of control
- T/C [2]: 99 % of control

SMILES: CCOC(=O)CCC1(C(=O)OC)C(=O)CCCCC/C=C/1C(=O)OC (configuration not stated)
- T/C [6]: 113 % of control
- T/C [7]: 104 % of control
- T/C (dose: 400.0 mg/kg/injection, schedule: Q01DX009 (ip), vehicle: saline with Tween-80): 104 % of control

SMILES: COC(=O)c1nc(N)nc(C(=O)OC)c1C(=O)c1ccc(C)cc1
- T/C [8]: 98 % of control
- T/C [9]: 100 % of control

SMILES: CC(/C=C/c1ccc(Cl)cc1)=N\NC(N)=O
- T/C [8]: 94 % of control
- T/C [9]: 99 % of control
- T/C [10]: 99 % of control

SMILES: COc1cc2c(c(OC)c1OC)-c1ccc(O)c(=O)cc1C(NC(C)=O)CC2 (configuration not stated)
- T/C (dose: 2.5 mg/kg/injection, schedule: Q01DX009 (ip), vehicle: Klucel (hydroxypropylcellulose) (HPC)): 100 % of control
- T/C (dose: 5.0 mg/kg/injection, schedule: Q01DX009 (ip), vehicle: Klucel (hydroxypropylcellulose) (HPC)): 99 % of control
- T/C (dose: 10.0 mg/kg/injection, schedule: Q01DX009 (ip), vehicle: Klucel (hydroxypropylcellulose) (HPC)): 100 % of control and 102 % of control
- T/C (dose: 20.0 mg/kg/injection, schedule: Q01DX009 (ip), vehicle: Klucel (hydroxypropylcellulose) (HPC)): 107 % of control and 115 % of control
- T/C (dose: 40.0 mg/kg/injection, schedule: Q01DX009 (ip), vehicle: Klucel (hydroxypropylcellulose) (HPC)): 108 % of control
- T/C (dose: 80.0 mg/kg/injection, schedule: Q01DX009 (ip), vehicle: Klucel (hydroxypropylcellulose) (HPC)): 110 % of control

SMILES: CNCCc1ccc2cc(OC)c(OC)cc2c1
- T/C (dose: 25.0 mg/kg/injection, schedule: Q01DX009 (ip), vehicle: saline with Tween-80): 90 % of control
- T/C [11]: 100 % of control
- T/C [6]: 100 % of control

SMILES: CCOC(=O)C1=NCCS1
- T/C [12]: 98 % of control
- T/C [13]: 99 % of control
- T/C [14]: 99 % of control

SMILES: O=C(N/N=C\c1cc([N+](=O)[O-])ccc1O)C(=O)N/N=C\c1cc([N+](=O)[O-])ccc1O
- T/C [15]: 106 % of control
- T/C [16]: 95 % of control
- T/C [17]: 99 % of control

SMILES: c1ccc(-c2ncc3n(-c4ccccc4)cnn23)cc1
- T/C (dose: 100.0 mg/kg/injection, schedule: Q04DX002 (ip), vehicle: saline with Tween-80): 95 % of control
- T/C (dose: 200.0 mg/kg/injection, schedule: Q04DX002 (ip), vehicle: saline with Tween-80): 86 % of control
- T/C (dose: 400.0 mg/kg/injection, schedule: Q04DX002 (ip), vehicle: saline with Tween-80): 89 % of control

SMILES: CC(C)C(NC(=O)[C@H](C(C)C)N1C(=O)c2ccccc2C1=O)C(=O)O (some centres not stated)
- T/C [12]: 88 % of control
- T/C [13]: 96 % of control

SMILES: Cc1ccc(NC(=O)N2CC(C)OC(C)C2)cc1[N+](=O)[O-] (configuration not stated)
- T/C [3]: 103 % of control
- T/C [4]: 99 % of control
- T/C [5]: 94 % of control

SMILES: O=S(=O)(c1ccc(NC(=S)NC23CC4CC(CC(C4)C2)C3)cc1)N1CCCCC1
- T/C [15]: 88 % of control
- T/C [16]: 93 % of control
- T/C [17]: 94 % of control

SMILES: O=C(Nc1nccs1)Nc1cc(F)ccc1F
- T/C (dose: 25.0 mg/kg/injection, schedule: Q01DX009 (ip), vehicle: Klucel (hydroxypropylcellulose) (HPC)): 90 % of control
- T/C [15]: 90 % of control
- T/C [16]: 90 % of control
- T/C [17]: 90 % of control

SMILES: Cc1ccc(S(=O)(=O)NC(=O)C2C(=O)CC3(CCCCC3)CC2=O)cc1
- T/C [15]: 117 % of control
- T/C [16]: 123 % of control
- T/C [17]: 124 % of control

SMILES: CCN(CC)CCCNc1cc(C)c2cc(OC)ccc2n1
- T/C (dose: 25.0 mg/kg/injection, schedule: Q01DX001 (ip), vehicle: saline with Tween-80): 99 % of control
- T/C (dose: 50.0 mg/kg/injection, schedule: Q01DX001 (ip), vehicle: saline with Tween-80): 97 % of control
- T/C (dose: 100.0 mg/kg/injection, schedule: Q01DX001 (ip), vehicle: saline with Tween-80): 90 % of control

SMILES: Clc1cccc(C(Nc2nncs2)Nc2nncs2)c1
- T/C [8]: 100 % of control
- T/C [9]: 100 % of control
- T/C [10]: 93 % of control

SMILES: CCOCCOCCSCc1ccccn1
- T/C [3]: 109 % of control
- T/C [4]: 99 % of control
- T/C [5]: 100 % of control

SMILES: c1ccc([Te][Te]c2ccccc2)cc1
- T/C [12]: 163 % of control
- T/C [14]: 105 % of control

SMILES: COc1ccc2c(ccc[n+]2C)c1
- T/C (dose: 5.0 mg/kg/injection, schedule: Q01DX009 (ip), vehicle: saline with Tween-80): 100 % of control
- T/C (dose: 10.0 mg/kg/injection, schedule: Q01DX009 (ip), vehicle: saline with Tween-80): 110 % of control
- T/C (dose: 20.0 mg/kg/injection, schedule: Q01DX009 (ip), vehicle: saline with Tween-80): 110 % of control

SMILES: O=C/C=C/c1cccc([N+](=O)[O-])c1
- T/C [11]: 113 % of control
- T/C [6]: 113 % of control
- T/C [7]: 104 % of control

SMILES: CC(=O)Oc1ccc(C2c3cc(OC(C)=O)c(OC(C)=O)cc3CC3C(=O)OCC32)cc1OC(C)=O (configuration not stated)
- T/C (dose: 50.0 mg/kg/injection, schedule: Q01DX005 (ip), vehicle: distilled water + alcohol): 102 % of control
- T/C (dose: 100.0 mg/kg/injection, schedule: Q01DX005 (ip), vehicle: distilled water + alcohol): 96 % of control
- T/C (dose: 200.0 mg/kg/injection, schedule: Q01DX005 (ip), vehicle: distilled water + alcohol): 100 % of control

SMILES: CN(C)C1CCc2[nH]c3c(F)cc(F)cc3c2C1 (configuration not stated)
- T/C [11]: 102 % of control

SMILES: ClC(Cl)(Cl)Sn1cccn1
- T/C [11]: 104 % of control
- T/C [6]: 97 % of control

SMILES: O=C(N/N=C/c1ccc(O)cc1)c1ccc(OCc2nc3ccccc3[nH]2)cc1
- T/C (dose: 25.0 mg/kg/injection, schedule: Q01DX005 (ip), vehicle: Klucel (hydroxypropylcellulose) (HPC)): 102 % of control
- T/C [3]: 96 % of control
- T/C [4]: 102 % of control
- T/C [5]: 96 % of control

SMILES: C(=NCCC[Si]12OCCN(CCO1)CCO2)c1ccco1
- T/C [3]: 113 % of control
- T/C [4]: 105 % of control
- T/C [5]: 105 % of control
